Measured values published in US7504095B2, “Method for obtaining precursor Z and use thereof for the production of a means for therapy of human molybdenum cofactor deficiency” (Technische Universitaet Braunschweig, priority 2004, dated 2009).

Tests used:
MOCS1-deficient mice [1] = experiment: Morphologic examination of tissues of treated knockout mice; assay type: in vivo
Protocol: FIG. 8: Morphologic comparison of kidneys (a, b) and brain sections (c,d) of wildtype- (a,c) and precursor Z-treated MOCS1-deficient mice, (b,d). Treatment was with 2-4 μg each third day. (a) Regular kidneys with normal glomerulus (arrow), characteristic developed tubuli and thin (narrow) interstices (200×). […] Proximal tubuli were extended (28+/−19%). […] The glomerulus is normal (arrow). (c,d) Corresponding coronal brain sections (Cx, Cortex; Hi, Hippocampus; Str, Striatum; Th, Thalamus; Hy, Hypothalamus) of wildtype-(c) and precursor Z-treated MOCS1^−/− mice (d).
Tissue from heart, skeletal muscle, lung, pancreas, thyroid, spleen and liver (data not shown) as well as brain (FIG. 8c-d) were examined.

MOCS1-deficient mice [2] = experiment: Lifespan and phenotype of MOCS1-/- mice injected with precursor Z into the liver; assay type: in vivo; settings: for Average Lifespan: injected into the liver
Protocol: The half-life of sulphite oxidase in rat liver was determined to be 3-4 days^B27.
The lowest dose amounted to 0.2 μg precursor Z, administered every second day. […] With the administration of 1-2 μg every third day the mice achieved a greater age and were suckled until day 20-30, thereafter the MOCS1^−/ animals however appeared slower in their flight reaction and in their internalization of their environment than the corresponding control animals. This difference disappeared about day 40, after which all MOCS1^−/− animals were as agile and full of life as the control individuals. […] The injection of 2-4 μg precursor Z every third day ws found to be the most successful treatment.

sulphite oxidase = experiment: Sulphite oxidase activity in liver after last injection; assay type: in vivo, mice
Protocol: FIG. 6: Restoration of the MPT-biosynthesis in vitro and in vivo. (a) In vitro restoration of MOCS1-deficient liver extracts with precursor Z. Protein raw extract of a five day old MOCS1^−/− were incubated (1 h) with the indicated amounts of purified precursor Z per mg protein. Restoration of MPT-synthesis was measured by means of nit-1 reconstitution assay. (b-d) Biochemical analysis of precursor Z treated MOCS1-deficient animals. The mice were twice weekly injected with increasing amounts of precursor Z, beginning with 2 μg after birth and up to 8 μg after weaning. Between the days 25-55 after birth the treatment was stopped. On day 0 (4 hours after the last injection), 1, 4 and 7 respectively, two mice were sacrificed. Two liver samples of each animal were removed and separately further processed. Each value in the figure was thus determined four times. […]
In homozygote MOCS1^−/−-animals, in which precursor Z was injected regularly and which appeared normal with regard to weight, appearance and behavior, the treatment was halted and the animals were sacrificed sequentially at days 0, 1, 4 and 7 after the last injection in order to determine the MPT-content and the Mo-enzyme activity in the liver (FIG. 6b-d). Due to the rapid conversion of the administered precursor Z to MPT, the highest MPT-value was measured on the day of the injection (16±1% of the wildtype; FIG. 6b). […]

MOCS1-deficient mice [3] = experiment: Xanthin and uric acid in urine of treated knockout mice; assay type: in vivo; settings: data not shown
[4] = Oxidation of precursor Z to compound Z in 2x PBS buffer, UV-VIS; assay type: physicochemical
Protocol: (a) Oxidation of precursor Z to compound Z. (b) UV-VIS absorption spectrum of 22 μM precursor Z after 17 h incubation at room temperature in 2× PBS-Buffer (pH 6.9). The spectra were recorded and indicated in time intervals following dilution in Buffer. (c) […] of oxidation of precursor Z by recording the absorption at 350 nm from the spectra shown in (b).
In order to obtain larger amounts, we used a bacterial strain, which enriched precursor Z on the basis of a defect in the conversion to MPT. A further improvement in the yield could be achieved by over expression of the protein MoaA and MoaC, which catalyse the first step of Moco-synthesis. This leads to an approximately 5000-fold enrichment of precursor Z in comparison to wild type cells, with an average yield of 40 μg per L E. coli culture and a final concentration of 30-140 μg/ml. […] Under physiological and aerobic conditions at pH 6.9 (2×PBS buffer) a 22 μM solution of precursor Z was oxidized within 5 h completely to compound ZBe^9. The half time of precursor Z at pH 6.9 could be determined with 62±12 (FIG. 5c).

[5] = Oxidation of precursor Z in D2O/DCl on exposure to air, followed by 1H-NMR; assay type: physicochemical; settings: D2O and DCl, exposed to air
Protocol: One- (1D) and two-dimensional (2D) ^1H-NMR-correlation spectra (COSY) were recorded at 300 K with a Bruker Avance DMX 600 NMR-spectrometer, which is linked to the dominating resonance of deuterium from the solvent D2O. Chemical shifts are indicated in ppm relative to the background signal of the solvent (4.80 ppm) and couplings in Hz. Precursor Z containing samples (100-200 μg) were freeze-dried and resuspended in 700 μl degassed D2O and 2 μl 36% DCl. For avoidance of oxidation, the pipette was gased for 5 minuites with nitrogen. These solutions were stable enough for recording both 1D- and 2D-COSY-spectra. Subsequent exposure of the solution to air caused the oxidation of the precursor Z to the well-described main single product, compound Z, and this reaction was monitored at regular intervals by recording 1D-^1H-spectra. Under normal conditions, this reaction is concluded after 14 days in D2O and DCl.

MOCS1-deficient mice [6] = experiment: Water labyrinth learning test; assay type: in vivo; settings: first series of tests
Protocol: FIG. 7: Ability to train precursor Z-treated MOCS1-deficient mice in a water labyrinth. The values represented a cross section of six wildtype- (wt, black bars) and six precursor Z treated MOCS1-deficient mice (MOCS1 ^−/−, white bars). […] C, time (of a total of 120 seconds), spent in the correct sector (without platform), which were learned in passes A and B.
Avoidance of light was tested in the light/dark box, in which the animals were placed into the light area and the time was determined until the animals sought out the darker area. […] The results were compared with wild-type controls. The mice were sequentially introduced into all four sectors and the time was measured until the animals found and climbed onto the platform (FIG. 7). […] In a second test series, the average swim time was reduced to 20-25% of the first test both in the “knockout” mice as well as with the control animals. In a third test series, the platform was removed and the time was measured that the mice spent in the “correct” sector—the sector that previously contained the platform. Both groups spent approximately 50% of the time in the correct sector.

Nc1nc2c(c(=O)[nH]1)N[C@@H]1[C@H](N2)O[C@@H]2COP(=O)(O)O[C@@H]2C1(O)O [precursor Z]
enlargement of the matrix of the interstices (MOCS1-deficient mice [1]; 2-4 μg each third day): 13+/−13% | extension of proximal tubuli (MOCS1-deficient mice [1]; 2-4 μg each third day): 28+/−19% | kidney stones (MOCS1-deficient mice [1]; 2-4 μg each third day): numerous stones in the tubuli | kidney morphology (MOCS1-deficient mice [1]; beginning day 20 after birth): bilateral abnormal kidneys | morphology besides kidney (MOCS1-deficient mice [1]; heart, skeletal muscle, lung, pancreas, thyroid, spleen, liver, brain): no further morphologic abnormality | development and weight gain (MOCS1-deficient mice [2]; 0.2 μg every second day, 11 mice): developed normally | Average Lifespan (MOCS1-deficient mice [2]; 0.2 μg every second day): 17.7 days | Average Lifespan (MOCS1-deficient mice [2]; 1 μg (prior to weaning) and 2 μg (after weaning) every third day): 32.9 days | Average Lifespan (MOCS1-deficient mice [2]; 1 μg every third day): 25.2 days | Average Lifespan (MOCS1-deficient mice [2]; 2 μg every second day): 47.4 days | fraction of treated animals that died between day 20 and 40 (MOCS1-deficient mice [2]; 1-2 μg every third day): Approximately half | deaths between days 40-70 (MOCS1-deficient mice [2]; 2-4 μg every third day): no animal died | offspring of pairings of treated animals (MOCS1-deficient mice [2]; 2-4 μg every third day): normally developed, healthy off-spring | difference in weight, behavior or other phenotypic characteristics versus wild type or heterozygous siblings (MOCS1-deficient mice [2]; prior to weaning): no difference could be determined | sulphite oxidase activity, course (sulphite oxidase; day 0 to day 1 after the last injection): rise | sulphite oxidase activity (% of wildtype) versus reconstituted MPT-content (sulphite oxidase; liver): higher than the reconstituted MPT-content | uric acid in the urine (MOCS1-deficient mice [3]): not measurable | xanthin in the urine (MOCS1-deficient mice [3]): very high | stability under physiological conditions ([4]; 2x PBS-Buffer pH 6.9, room temperature): stable under physiological conditions | half time of precursor Z ([4]; pH 6.9, 2xPBS buffer, aerobic, 22 μM, room temperature): 62±12 | time to complete oxidation to compound Z ([4]; pH 6.9, 2xPBS buffer, physiological and aerobic conditions, 22 μM solution): ≤ 5 h | time until oxidation to compound Z is concluded [5]: 14 days | water labyrinth: finding the platform versus wild-type controls (MOCS1-deficient mice [6]): more rapidly than the wild-type control animals
